Data taken from article PMC9782539, “Synthesis, Characterization and Biological Evaluation of Benzothiazole–Isoquinoline Derivative” (Molecules, 2022).

Experiments:
[1] = Cytotoxicity, MTT method; type: cell-based; details: mouse, L929 cells, 0–100 μM, read-out: cell viability (MTT)
Method: L929 (Shanghai Cell Bank, Chinese Academy of Sciences) cells were cultured in 10% fetal bovine serum: penicillin–streptomycin solution: MEM mixed medium with serum–free medium (10:1:90), and subcultured in a 5% carbon dioxide cell incubator at 37 °C, and the medium changed every other day.
In this experiment, L929 cells in the logarithmic growth phase were selected, and the cell density was adjusted to 2 × 10^4 cells per well. The cells were seeded in 96–well plates, and the 96–well plates seeded with cells were cultured in a 37 °C 5% carbon dioxide cell incubator. After 24 h, different concentrations of the test compound medium (6.5, 12.5, 25, 50, 100 μM) were added, and the blank group was added with drug–free medium, shaken gently, and placed at 37 °C 5%. The cells were cultured in a carbon dioxide cell incubator for 24 h, and each concentration was replicated 6 times. After 24 h, 20 μL of […] MTT solution (prepared in PBS with pH = 7.6) was added in the dark, and cultured in the cell incubator for another 4 h. After 4 h, the 96–well plate was taken out and the original medium was discarded. Added 160 μL DMSO, put it on a shaker and mixed well for about 10 min, used a microplate reader to measure its absorbance at 490 nm, recorded the results and analyzed.

[2] = system: ICR male mice; test: Forced swimming test (FST); type: in vivo; details: i.p., 30 mg/kg; for Duration of Immobility: 30 min after administration, mean ± SEM (n = 8); for DID (%) percentage decrease in immobility duration: vs control
Method: Pharmacological experiments of antidepressant activity used FST in mice, fluoxetine hydrochloride was used as a positive control, and the vehicle solvent PFG–400 was used as a blank control. The experiment used ICR male mice (20 ± 2 g). Six benzothiazole–quinoline derivatives were dissolved in polyethylene glycol–400, and 30 min after administration (i.p., 30 mg/kg), the mice were each placed in a glass cylinder, recording the time of immobility. Duration of immobility outcomes is expressed as mean ± SEM. The t-test was used to make comparisons between groups.

[3] = molecular target: MAO; test: MAO inhibitory activity (Holts method, rat liver mitochondrial enzyme); type: biochemical
Method: (§1) Male SD rats were sacrificed by decapitation, operated on ice, their livers were removed, and the liver surface was washed with precooled phosphate buffer. The liver was cut into pieces, and after washing (using PBS), 20 mL of 0.3 M sucrose buffer was added for homogenization. After fully homogenized, it was balanced by a tray balance. Low–temperature differential centrifugation was performed, and the obtained SD rat liver mitochondrial concentrate was the experimental monoamine oxidase stock solution, and was stored in a −80 °C refrigerator.
(§2) Added 25 µL of enzyme dilution solution and 25 µL of test derivatives (control group plus rasagiline, blank group plus 10% DMSO) to 96–well plate, incubated at 37 °C for 1 h, then 120 µL of substrate was added, 80 µL of chromogenic solution was added, incubated at 37 °C for 30 min, and its absorbance measured at 490 nm. In addition, in order to exclude the influence of protein, a protein control group was established, only the enzyme dilution was added, and the rest were replaced with PBS, and the absorbance value was detected at a wavelength of 490 nm. The inhibition rate of each concentration was substituted into the calculation software GraphPad Prism 8 to calculate the IC50 value.

[4] = molecular target: T1, MAO–A (Rattus norvegicus, UniProt P21396); test: MAO–A inhibitory activity (enzyme pre-incubated with pargyline); type: biochemical
T1 construct: the obtained SD rat liver mitochondrial concentrate was the experimental monoamine oxidase stock solution; from tissue; host or cells: male SD rat liver mitochondria
T1 sequence (P21396 1-526): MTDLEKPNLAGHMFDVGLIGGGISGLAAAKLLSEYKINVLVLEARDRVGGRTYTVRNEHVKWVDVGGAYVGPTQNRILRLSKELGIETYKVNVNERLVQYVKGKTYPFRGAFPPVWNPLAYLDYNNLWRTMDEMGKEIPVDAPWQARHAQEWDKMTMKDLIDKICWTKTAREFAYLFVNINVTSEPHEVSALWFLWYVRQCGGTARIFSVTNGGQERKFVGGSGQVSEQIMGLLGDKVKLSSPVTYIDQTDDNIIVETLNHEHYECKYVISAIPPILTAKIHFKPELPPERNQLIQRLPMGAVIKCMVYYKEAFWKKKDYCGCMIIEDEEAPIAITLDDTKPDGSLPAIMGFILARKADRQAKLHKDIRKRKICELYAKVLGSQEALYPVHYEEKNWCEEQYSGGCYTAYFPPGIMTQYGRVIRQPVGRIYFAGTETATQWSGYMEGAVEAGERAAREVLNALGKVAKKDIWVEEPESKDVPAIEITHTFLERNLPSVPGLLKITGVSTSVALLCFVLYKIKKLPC
Method: as §1, §2
(§3) The inhibition rate of each concentration was substituted into the calculation software GraphPad Prism 8 to calculate the IC50 value.

[5] = molecular target: T2, MAO–B (Rattus norvegicus, UniProt P19643); test: MAO–B inhibitory activity (enzyme pre-incubated with chlorgiline); type: biochemical
T2 construct: the obtained SD rat liver mitochondrial concentrate was the experimental monoamine oxidase stock solution; from tissue; host or cells: male SD rat liver mitochondria
T2 sequence (P19643 1-520): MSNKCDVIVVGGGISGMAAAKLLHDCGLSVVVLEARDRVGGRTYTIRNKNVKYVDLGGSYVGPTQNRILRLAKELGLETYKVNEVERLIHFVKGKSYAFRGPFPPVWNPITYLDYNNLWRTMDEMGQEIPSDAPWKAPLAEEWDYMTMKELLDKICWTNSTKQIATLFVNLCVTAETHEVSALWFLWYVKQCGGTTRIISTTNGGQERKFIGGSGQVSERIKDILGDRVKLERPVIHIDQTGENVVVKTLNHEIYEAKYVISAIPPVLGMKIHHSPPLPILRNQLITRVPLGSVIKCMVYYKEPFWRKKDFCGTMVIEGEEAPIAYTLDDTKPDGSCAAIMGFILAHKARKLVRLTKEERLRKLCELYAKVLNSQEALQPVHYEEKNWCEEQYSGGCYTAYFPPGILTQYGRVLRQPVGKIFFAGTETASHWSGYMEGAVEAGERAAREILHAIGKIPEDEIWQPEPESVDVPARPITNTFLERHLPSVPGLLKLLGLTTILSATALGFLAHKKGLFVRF
Method: as §1, §2, §3

[6] = molecular target: BuChE (Homo sapiens, UniProt P06276); test: biochemical; type: biochemical
Method: (§4) Each concentration was tested three times in parallel, and 96 empty plates were taken, and 20 µL of the test sample or positive drug (10% DMSO was added to the blank control), 40 µL of AChE or BuChE (0.2 U/mL) and 100 µL of DTNB (0.001 mol/L) were added in turn, mixed well and incubated in a constant temperature water bath at 37 °C for 15 min.

[7] = molecular target: AChE (Homo sapiens, UniProt P22303); test: biochemical; type: biochemical
Method: as §4

Chain of AChE (P22303 32-614): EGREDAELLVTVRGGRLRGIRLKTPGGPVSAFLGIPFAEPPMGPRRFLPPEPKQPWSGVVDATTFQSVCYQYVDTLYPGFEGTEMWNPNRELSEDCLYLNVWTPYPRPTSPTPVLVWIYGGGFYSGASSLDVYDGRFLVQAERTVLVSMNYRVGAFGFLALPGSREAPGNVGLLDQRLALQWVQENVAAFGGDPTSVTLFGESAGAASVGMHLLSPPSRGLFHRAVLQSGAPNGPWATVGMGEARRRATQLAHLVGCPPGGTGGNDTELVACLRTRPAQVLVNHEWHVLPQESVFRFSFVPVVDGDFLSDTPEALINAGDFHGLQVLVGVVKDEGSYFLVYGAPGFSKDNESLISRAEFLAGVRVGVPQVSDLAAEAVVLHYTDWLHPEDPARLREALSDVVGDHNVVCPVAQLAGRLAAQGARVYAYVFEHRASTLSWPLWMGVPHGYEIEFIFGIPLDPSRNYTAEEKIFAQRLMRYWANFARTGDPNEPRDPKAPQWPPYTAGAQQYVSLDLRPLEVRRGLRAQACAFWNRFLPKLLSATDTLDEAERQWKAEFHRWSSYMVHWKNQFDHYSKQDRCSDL
Chain of BuChE (P06276 29-602): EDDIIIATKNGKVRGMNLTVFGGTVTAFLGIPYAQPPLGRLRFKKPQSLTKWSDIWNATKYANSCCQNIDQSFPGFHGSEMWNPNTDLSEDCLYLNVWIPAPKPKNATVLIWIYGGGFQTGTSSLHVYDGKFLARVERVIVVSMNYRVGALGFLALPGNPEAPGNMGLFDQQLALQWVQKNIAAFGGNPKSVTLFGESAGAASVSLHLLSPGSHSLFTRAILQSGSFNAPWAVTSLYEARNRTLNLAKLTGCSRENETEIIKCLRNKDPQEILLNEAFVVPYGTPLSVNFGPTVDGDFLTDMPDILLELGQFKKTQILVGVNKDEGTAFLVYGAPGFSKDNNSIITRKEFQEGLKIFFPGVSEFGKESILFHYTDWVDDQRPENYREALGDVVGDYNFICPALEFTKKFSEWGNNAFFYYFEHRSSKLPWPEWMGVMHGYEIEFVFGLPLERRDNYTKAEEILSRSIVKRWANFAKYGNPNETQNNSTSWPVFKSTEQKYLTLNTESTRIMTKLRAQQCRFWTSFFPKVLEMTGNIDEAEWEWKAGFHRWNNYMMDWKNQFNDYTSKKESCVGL

Row | SMILES | viability at 24 h [1] | Duration of Immobility [2] | DID (%) percentage decrease in immobility duration [2] | IC50 [3] | Inhibition Rate of MAO (%) [3] | Inhibition Rate (%) MAO–A [4] | IC50 [5] | Inhibition Rate (%) MAO–B [5] | IC50 [6] | Inhibition Rate (%) BuChE [6] | IC50 [7] | Inhibition Rate (%) AChE [7]
1 | Cc1cccc2sc(NC(=O)CN3CCc4ccccc4[C@H]3c3ccccc3)nc12 [Compound 4g, (R)–N–(4–methylbenzo[d]thiazol–2–yl)–2–(1–phenyl–3,4–dihydroisoquinolin–2(1H)–yl)acetamide] | > 90% | 69.0 ± 15.7 s | 61.32% | 14.8 ± 5.45 µM | 57.11% | 9.03% | 12.1 ± 3.47 µM | 51.39% | 30.3 ± 4.59 µM | 72.64% | > 150 µM | 1.10%
2 | O=C(CN1CCc2ccccc2[C@H]1c1ccccc1)Nc1nc2ccc(Cl)cc2s1 [Compound 4c, (R)–N–(6–chlorobenzo[d]thiazol–2–yl)–2–(1–phenyl–3,4–dihydroisoquinolin–2(1H)–yl)acetamide] | > 90% | 77.0 ± 18.3 s | 56.84% | 45.9 ± 2.66 µM | 21.59% | 12.03% | 9.13 ± 4.17 µM | 48.45% | > 150 µM | 68.80% | > 150 µM | 1.10%
3 | O=C(CN1CCc2ccccc2[C@H]1c1ccccc1)Nc1nc2cc(Cl)ccc2s1 [Compound 4b, (R)–N–(5–chlorobenzo[d]thiazol–2–yl)–2–(1–phenyl–3,4–dihydroisoquinolin–2(1H)–yl)acetamide] | > 90% | 85.7 ± 8.1 s | 51.98% | 38.8 ± 3.76 µM | 39.27% | 3.01% | 40.8 ± 2.67 µM | 39.15% | 17.6 ± 1.78 µM | 69.44% | > 150 µM | 4.42%
4 | Cc1ccc2nc(NC(=O)CN3CCc4ccccc4[C@H]3c3ccccc3)sc2c1 [Compound 4i, (R)–N–(6–methylbenzo[d]thiazol–2–yl)–2–(1–phenyl–3,4–dihydroisoquinolin–2(1H)–yl)acetamide] | > 90% | 83.8 ± 13.6 s | 53.05% | 18.5 ± 1.69 µM | 26.46% | 2.51% | 16.5 ± 3.59 µM | 61.17% | 19.2 ± 2.72 µM | 47.68% | > 150 µM | 2.21%
5 | O=C(CN1CCc2ccccc2[C@H]1c1ccccc1)Nc1nc2c(Br)cccc2s1 [Compound 4d, (R)–N–(4–bromobenzo[d]thiazol–2–yl)–2–(1–phenyl–3,4–dihydroisoquinolin–2(1H)–yl)acetamide] | > 90% | 62.3 ± 14.0 s | 65.06% | 64.8 ± 4.2 µM | 43.37% | 18.05% | 3.26 ± 2.78 µM | 46.00% | 14.6 ± 5.81 µM | 77.76% | > 150 µM | 0.55%
